Laboratory results as given in patent US12281225B2, “Process for preparing stable polymers containing vinylimidazole” (BASF SE, priority 2018, dated 2025).

Columns and labels:
[1] = Iodine color number according to DIN 6162:2014-09; format: physicochemical
[2] = Physical stability; visual assessment (color, turbidity, phase separation); format: physicochemical; parameters: key: ++: no discernible change with respect to color, turbidity or phase separation; +: marginal change in color number, somewhat increased Tyndall effect but no turbidity; 0: easily discernible increase in color number and moderate turbidity−no phase separation; −: turbidity and change in color number readily discernible by visual assessment; −−: strong color change with strong turbidity and incipient phase separation
From the text: Physical stability; visual assessment according to:
++=no discernible change with respect to color, turbidity or phase separation; +=marginal change in color number, somewhat increased Tyndall effect but no turbidity; 0=easily discernible increase in color number and moderate turbidity−no phase separation; − turbidity and change in color number readily discernible by visual assessment; −− strong color change with strong turbidity and incipient phase separation.
Before storage, all batches could be rated ++ (no turbidity or phase separation; no influence of the biocide on the color number of the product).

[3] = system: Yeast: Candida albicans, Candida valida, Rhodotorula rura, Saccharomyces cerevisiae; experiment: Preservation test with periodic inoculation, yeast assessment; format: cell-based; details: for Start sample measurement, yeast assess., 4th inoculation: freshly formulated; for 60 d 40° C., yeast assess., 4th inoculation: sample stored 60 d at 40° C.
Protocol: (§1) Microbiological results at the start (freshly formulated, i.e. 4-week test series is started immediately) and after 60 days of storage at 40° C. (i.e. the 4-week microbial testing is started with the sample stored at 40° C. for 60 days)
(§2) The test described below is carried out in order to ascertain the preserving effect of chemical preservatives in aqueous products and systems, the principle of the described method reflecting the efficacy of chemical preservatives with respect to pot-maintenance of aqueous products/systems under conditions corresponding to the use of laundry products/consumer products by the consumer. For this purpose, the preservatives to be tested are added in those concentrations which correspond to from the literature or to the manufacturer data from the suppliers (e.g. Thor, Speyer). In said test, our orientation was toward the upper range, which, with the exception of VI-containing polymers, had always led to excellent results in the case of aqueous polymers for laundry.
(§3) A constant microorganism load is achieved by periodic inoculation of the test batches. Before the swabs of each batch made respectively immediately in parallel with the inoculation. The assessment is made on the basis of the microbial growth of the streaks.
(§4) When carrying out said tests, 25 g of the polymer to be tested are weighed in each case into a vessel with a screw cap. The preservatives to be tested are each added in separate batches according to the specified use concentrations. An unpreserved product sample was used in each case for the growth control. Two days after the addition of the preservative, the samples are infected with 0.5 ml of inoculum (2% w/w). The titer of this inoculant solution is 10^9 organisms per ml. The following microorganisms are the test organisms for the preservation test:
(§5) • Escherichia coli • Staphylococcus aureus • Pseudomonas aeruginosa • Pseudomonas putida • Burkholderia cepacia • Alcaligenes faecalis Yeast: • Candida albicans • Candida valida • Rhodotorula rura • Saccharomyces cerevisiae
(§6) The test batches are inoculated four times altogether and once a week and are streaked on an agar plate once a week; the first streaking is done immediately before the new inoculation. Microbial growth on the agar surface is assessed after a three-day incubation at 25° C. As a precaution, negative swabs are additionally observed for a further three days and reassessed. The preserving effect is effected in a semiquantitative method via the growth of the individual streaks in accordance with the assessment from − via + to +++. The preservative result is repeatedly demonstrably robust, i.e. +++− defines the microbial growth.
(§7) When assessing the results, it is assumed that a preservative can be regarded as good if there are batches under the above-described laboratory conditions for a period of four weeks without microbial invasion of the sample, and that, even after the fourth inoculation, no microbial attacks occur growth can be identified. • −−: no growth • −: slight growth, max. 100 colonies • 0: moderate growth, max. 400 colonies • +: uniform growth with individual colonies still easily identifiable • ++: strong growth; too many colonies to be counted, already some extensive growth

[4] = system: Bacteria: Escherichia coli, Staphylococcus aureus, Pseudomonas aeruginosa, Pseudomonas putida, Burkholderia cepacia, Alcaligenes faecalis; experiment: Preservation test with periodic inoculation, bacteria assessment; format: cell-based; details: sample stored 60 d at 40° C.
Protocol: as §1, §2, §3, §4, §5, §6, §7

[5] = Polymer P5 (HP56) with stabilizer

In the case of `Cn1sc(Cl)cc1=O` [CMIT, 5-chloro-N-methylisothiazolin-3-one], the “Iodine color number, 60 d 40° C.” value ([1]; Polymer P1 with stabilizer) is reported as 6.2, the “Iodine color number, start” value ([1]; Polymer P1 with stabilizer) is reported as 2.5 and the “Iodine color number, 60 d 40° C.” value ([1]; Polymer P2 with stabilizer) is reported as 8.6. The “Iodine color number, start” value ([1]; Polymer P2 with stabilizer) was 3.1, the “Iodine color number, 60 d 40° C.” value ([1]; Polymer P3 with stabilizer) was 8.5 and the “Iodine color number, start” value ([1]; Polymer P3 with stabilizer) was 3.2. The “Iodine color number, 60 d 40° C.” value ([1]; Polymer P4 with stabilizer) was 8.9, the “Iodine color number, start” value ([1]; Polymer P4 with stabilizer) was 3.2 and the “Iodine color number, 60 d 40° C.” value [1, 5] was 9.0. For the same compound, the “Iodine color number, start” value [1, 5] was 3.5, the “Iodine color number, 60 d 40° C.” value ([1]; Polymer P6 with stabilizer) was 9.1 and the “Iodine color number, start” value ([1]; Polymer P6 with stabilizer) was 3.5. For the same compound, the “Iodine color number, 60 d 40° C.” value ([1]; Polymer P7 with stabilizer) was 9.1, the “Iodine color number, start” value ([1]; Polymer P7 with stabilizer) was 3.5 and the “Iodine color number, 60 d 40° C.” value ([1]; Polymer P8 with stabilizer) was 9.3. For the same compound, the “Iodine color number, start” value ([1]; Polymer P8 with stabilizer) was 3.3, the “Iodine color number, 60 d 40° C.” value ([1]; Polymer P9 with stabilizer) was 13.9 and the “Iodine color number, start” value ([1]; Polymer P9 with stabilizer) was 3.9. For the same compound, the “Physical stability, 60 d 40° C.*” value ([2]; Polymer P1 with stabilizer) was “−−”, the “Physical stability, 60 d 40° C.*” value ([2]; Polymer P2 with stabilizer) was “−−” and the “Physical stability, 60 d 40° C.*” value ([2]; Polymer P3 with stabilizer) was “−”. For the same compound, the “Physical stability, 60 d 40° C.*” value ([2]; Polymer P4 with stabilizer) was “−−”, the “Physical stability, 60 d 40° C.*” value [2, 5] was “−−” and the “Physical stability, 60 d 40° C.*” value ([2]; Polymer P6 with stabilizer) was “−−”. For the same compound, the “Physical stability, 60 d 40° C.*” value ([2]; Polymer P7 with stabilizer) was “−”, the “Physical stability, 60 d 40° C.*” value ([2]; Polymer P8 with stabilizer) was “−−” and the “Physical stability, 60 d 40° C.*” value ([2]; Polymer P9 with stabilizer) was “−−”. For the same compound, the “Start sample measurement, yeast assess., 4th inoculation” value (“Start sample measurement” below) ([3]; Polymer P1) was “− (slight growth, max. 100 colonies)”, the “60 d 40° C., yeast assess., 4th inoculation” value ([3]; Polymer P1) was “+” and the “Start sample measurement” value ([3]; Polymer P2) was “− (slight growth, max. 100 colonies)”. For the same compound, the “60 d 40° C., yeast assess., 4th inoculation” value ([3]; Polymer P2) was “+”, the “Start sample measurement” value ([3]; Polymer P3) was “− (slight growth, max. 100 colonies)” and the “60 d 40° C., yeast assess., 4th inoculation” value ([3]; Polymer P3) was “++”. The “Start sample measurement” value ([3]; Polymer P4) was “− (slight growth, max. 100 colonies)”, the “60 d 40° C., yeast assess., 4th inoculation” value ([3]; Polymer P4) was “+” and the “Start sample measurement” value ([3]; Polymer P5 (HP56)) was “− (slight growth, max. 100 colonies)”. For the same compound, the “60 d 40° C., yeast assess., 4th inoculation” value ([3]; Polymer P5 (HP56)) was “++”, the “Start sample measurement” value ([3]; Polymer P6) was “− (slight growth, max. 100 colonies)” and the “60 d 40° C., yeast assess., 4th inoculation” value ([3]; Polymer P6) was “+”. For the same compound, the “Start sample measurement” value ([3]; Polymer P7) was “− (slight growth, max. 100 colonies)”, the “60 d 40° C., yeast assess., 4th inoculation” value ([3]; Polymer P7) was “++” and the “Start sample measurement” value ([3]; Polymer P8) was “− (slight growth, max. 100 colonies)”. For the same compound, the “60 d 40° C., yeast assess., 4th inoculation” value ([3]; Polymer P8) was 0 (moderate growth, max. 400 colonies), the “Start sample measurement” value ([3]; Polymer P9) was “− (slight growth, max. 100 colonies)” and the “60 d 40° C., yeast assess., 4th inoculation” value ([3]; Polymer P9) was “++”. For the same compound, the “60 d 40° C., bact. assess., 4th inoculation” value ([4]; Polymer P1) was 0 (moderate growth, max. 400 colonies), the “60 d 40° C., bact. assess., 4th inoculation” value ([4]; Polymer P2) was “+” and the “60 d 40° C., bact. assess., 4th inoculation” value ([4]; Polymer P3) was “+”. For the same compound, the “60 d 40° C., bact. assess., 4th inoculation” value ([4]; Polymer P4) was “+”, the “60 d 40° C., bact. assess., 4th inoculation” value ([4]; Polymer P5 (HP56)) was “+” and the “60 d 40° C., bact. assess., 4th inoculation” value ([4]; Polymer P6) was “+”. The “60 d 40° C., bact. assess., 4th inoculation” value ([4]; Polymer P7) was “+”, the “60 d 40° C., bact. assess., 4th inoculation” value ([4]; Polymer P8) was 0 (moderate growth, max. 400 colonies) and the “60 d 40° C., bact. assess., 4th inoculation” value ([4]; Polymer P9) was “++”.
In the case of benzalkonium chloride [BAC], the “Iodine color number, 60 d 40° C.” value ([1]; Polymer P1 with stabilizer) is reported as 2.8, the “Iodine color number, start” value ([1]; Polymer P1 with stabilizer) is reported as 2.6 and the “Iodine color number, 60 d 40° C.” value ([1]; Polymer P2 with stabilizer) is reported as 3.2. For the same compound, the “Iodine color number, start” value ([1]; Polymer P2 with stabilizer) was 3.0, the “Iodine color number, 60 d 40° C.” value ([1]; Polymer P3 with stabilizer) was 3.3 and the “Iodine color number, start” value ([1]; Polymer P3 with stabilizer) was 3.2. For the same compound, the “Iodine color number, 60 d 40° C.” value ([1]; Polymer P4 with stabilizer) was 3.3, the “Iodine color number, start” value ([1]; Polymer P4 with stabilizer) was 3.2 and the “Iodine color number, 60 d 40° C.” value [1, 5] was 3.3. The “Iodine color number, start” value [1, 5] was 3.3, the “Iodine color number, 60 d 40° C.” value ([1]; Polymer P6 with stabilizer) was 3.4 and the “Iodine color number, start” value ([1]; Polymer P6 with stabilizer) was 3.3. For the same compound, the “Iodine color number, 60 d 40° C.” value ([1]; Polymer P7 with stabilizer) was 3.4, the “Iodine color number, start” value ([1]; Polymer P7 with stabilizer) was 3.3 and the “Iodine color number, 60 d 40° C.” value ([1]; Polymer P8 with stabilizer) was 3.4. The “Iodine color number, start” value ([1]; Polymer P8 with stabilizer) was 3.3, the “Iodine color number, 60 d 40° C.” value ([1]; Polymer P9 with stabilizer) was 4.0 and the “Iodine color number, start” value ([1]; Polymer P9 with stabilizer) was 3.7. For the same compound, the “Physical stability, 60 d 40° C.*” value ([2]; Polymer P1 with stabilizer) was “+”, the “Physical stability, 60 d 40° C.*” value ([2]; Polymer P2 with stabilizer) was “+” and the “Physical stability, 60 d 40° C.*” value ([2]; Polymer P3 with stabilizer) was “++”. The “Physical stability, 60 d 40° C.*” value ([2]; Polymer P4 with stabilizer) was “+”, the “Physical stability, 60 d 40° C.*” value [2, 5] was “+” and the “Physical stability, 60 d 40° C.*” value ([2]; Polymer P6 with stabilizer) was “+”. For the same compound, the “Physical stability, 60 d 40° C.*” value ([2]; Polymer P7 with stabilizer) was “++”, the “Physical stability, 60 d 40° C.*” value ([2]; Polymer P8 with stabilizer) was “+” and the “Physical stability, 60 d 40° C.*” value ([2]; Polymer P9 with stabilizer) was “+”. For the same compound, the “60 d 40° C., yeast assess., 4th inoculation” value ([3]; Polymer P1) was “− (slight growth, max. 100 colonies)”, the “60 d 40° C., yeast assess., 4th inoculation” value ([3]; Polymer P2) was “− (slight growth, max. 100 colonies)” and the “60 d 40° C., yeast assess., 4th inoculation” value ([3]; Polymer P3) was “− (slight growth, max. 100 colonies)”.
